Measured values: patent publication US6440471B2, “Plant proanthocyanidin extracts” (JLB, Inc., priority 1999, dated 2002)
Entries after “also recorded” stand apart in the source; their conditions may differ.

Tested on: adhesion of bacteria
Assay: Anti-adhesion assay (not further specified)
Assay type: cell-based
Source text: Further, quercetin and myricetin, which both share the catechin or epicatechin-like nucleus with leucocyanins but have R^2=H or OH, have been tested in the anti-adhesion assay and show no activity. […] Further, as described previously herein, one of the anti-adhesion assays described herein compares the ability of a substance to inhibit binding relative to mannose inhibition of such adhesion, and it is therefore believed that a carbohydrate moiety is involved in conferring anti-adhesion activity.

Compound | anti-adhesion activity
myricetin-3-pyranoside | some anti-adhesion activity; also recorded: does have anti-adhesion activity
O=c1c(O)c(-c2cc(O)c(O)c(O)c2)oc2cc(O)cc(O)c12 [myricetin] | no activity
O=c1c(O)c(-c2ccc(O)c(O)c2)oc2cc(O)cc(O)c12 [quercetin] | no activity
